26 molecules from US9273041B2, “Compounds for the treatment of dyslipidemia and related diseases” (Cadila Healthcare Limited, priority 2012, dated 2016) can be followed below.

The assay has as its target PCSK9 (Homo sapiens, UniProt Q8NBP7). The assay can be described thus: PCSK9-LDLR in vitro binding assay (solid phase, ELISA readout). The following applies: read-out: % Inhibition PCSK 9; for inhibition at 10 µM: test compound concentration 10 μM; for inhibition at 100 µM: test compound concentration 100 μM; for inhibition at 1 µM: test compound concentration 1 μM. The method, then:
The PCSK9-LDLR in vitro binding Assay is a quantitative solid phase binding assay between PCSK9 and recombinant LDLR. Plates were pre-coated with a recombinant LDLR-AB domain, which binds PCSK9. Test compound at different concentration was added to the PCSK9 and added to LDLR immobilized on the wells. The amount of bound PCSK9 is measured by binding it with biotinylated anti-His-tag monoclonal antibody, followed by binding with horseradish peroxidase conjugated streptavidin substrate. The color was quantified by ELISA reader at […] which reflects the relative amount of PCSK9 that binds to LDLR in presence and absence of the inhibitor. EC50 values were calculated by nonlinear regression analysis using graph pad prism software. Each concentration point represents values in duplicates.
(An ELISA detects its analyte on a solid surface through an enzyme-linked reagent.)

Chain of PCSK9 (Q8NBP7 153-692): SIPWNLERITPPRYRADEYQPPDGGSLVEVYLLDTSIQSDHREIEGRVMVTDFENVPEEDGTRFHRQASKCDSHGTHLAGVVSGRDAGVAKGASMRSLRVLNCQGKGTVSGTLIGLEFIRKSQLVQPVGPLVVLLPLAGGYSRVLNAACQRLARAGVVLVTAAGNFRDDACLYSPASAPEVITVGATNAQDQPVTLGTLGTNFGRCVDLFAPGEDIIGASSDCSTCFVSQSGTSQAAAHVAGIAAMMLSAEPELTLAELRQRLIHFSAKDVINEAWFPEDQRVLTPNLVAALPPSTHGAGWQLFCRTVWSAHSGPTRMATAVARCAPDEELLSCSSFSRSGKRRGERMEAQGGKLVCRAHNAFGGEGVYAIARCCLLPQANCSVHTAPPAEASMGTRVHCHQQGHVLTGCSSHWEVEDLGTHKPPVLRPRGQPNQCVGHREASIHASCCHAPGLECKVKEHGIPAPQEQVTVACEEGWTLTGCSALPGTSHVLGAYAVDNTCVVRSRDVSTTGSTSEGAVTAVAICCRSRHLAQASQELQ
Chain of PCSK9 (Q8NBP7 31-152 partner limits assumed): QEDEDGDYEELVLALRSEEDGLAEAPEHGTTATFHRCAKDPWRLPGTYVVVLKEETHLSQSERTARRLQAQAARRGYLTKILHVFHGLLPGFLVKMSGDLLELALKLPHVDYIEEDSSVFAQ

Consider `Cc1oc(-c2ccc(F)cc2)nc1-c1ccc(OCC(=O)NCC2CCOCC2)cc1` [Example 19, 2-(4-(2-(4-fluorophenyl)-5-methyloxazol-4-yl)phenoxy)-N-((tetrahydro-2H-pyran-4-yl)methyl)acetamide], for which the inhibition (as a rule, the share of the control response that was lost under treatment) at 10 µM was determined as 24% and the inhibition at 100 µM was 50%.
Regarding `Cc1oc(-c2ccc(C(F)(F)F)cc2)nc1-c1ccc(OCC(=O)NCC2CCOCC2)cc1` [Example 18, 2-(4-(5-methyl-2-(4-(trifluoromethyl)phenyl)oxazol-4-yl)phenoxy)-N-((tetrahydro-2H-pyran-4-yl)methyl)acetamide], the inhibition at 10 µM is 53%.
Turning to `Cc1nc(-c2ccc(C(F)(F)F)cc2)sc1-c1ccc(OCC(=O)NCC2CCOCC2)cc1` [Example 12, 2-(4-(4-methyl-2-(4-(trifluoromethyl)phenyl)thiazol-5-yl)phenoxy)-N-((tetrahydro-2H-pyran-4-yl)methyl)acetamide], the inhibition at 10 µM is 33% and the inhibition at 100 µM turned out to be 36%.
`Cc1oc(-c2ccccc2)nc1-c1ccc(OCC(=O)NCC2CCOCC2)cc1` [Example 17, 2-(4-(5-methyl-2-phenyloxazol-4-yl)phenoxy)-N-((tetrahydro-2H-pyran-4-yl)methyl)acetamide]: the inhibition at 1 µM was found to be 40%, the inhibition at 10 µM turned out to be 38% and the inhibition at 100 µM worked out at 63%.
Turning to `O=C(COc1ccc(-c2nnc(-c3ccc(C(F)(F)F)cc3)o2)cc1)NCC1CCOCC1` [Example 31, N-((tetrahydro-2H-pyran-4-yl)methyl)-2-(4-(5-(4-(trifluoromethyl)phenyl)-1,3,4-oxadiazol-2-yl)phenoxy)acetamide], the inhibition at 1 µM was found to be 25%, the inhibition at 10 µM was determined as 34% and the inhibition at 100 µM was determined as 36%.
Consider `Cc1c(-c2ccc(OCC(=O)NCC3CCOCC3)cc2)noc1-c1ccc(Cl)cc1` [Example 4, 2-(4-(5-(4-chlorophenyl)-4-methylisoxazol-3-yl)phenoxy)-N-((tetrahydro-2H-pyran-4-yl)methyl)acetamide], for which the inhibition at 10 µM turned out to be 36% and the inhibition at 100 µM is 29%.
For `Cc1onc(-c2ccc(OCC(=O)NCC3CCOCC3)cc2)c1-c1ccccc1` [Example 2, 2-(4-(5-methyl-4-phenylisoxazol-3-yl)phenoxy)-N-((tetrahydro-2H-pyran-4-yl)methyl)acetamide], the inhibition at 10 µM came to 9% and the inhibition at 100 µM came to 33%.
Consider `O=C(COc1ccc(-c2nnc(-c3ccc(F)cc3)o2)cc1)NCC1CCOCC1` [Example 30, 2-(4-(5-(4-fluorophenyl)-1,3,4-oxadiazol-2-yl)phenoxy)-N-((tetrahydro-2H-pyran-4-yl)methyl)acetamide], for which the inhibition at 1 µM is 19%, the inhibition at 10 µM is 20% and the inhibition at 100 µM was 32%.
In the case of `Cc1c(-c2ccc(OCC(=O)NCC3CCOCC3)cc2)nsc1-c1ccccc1` [Example 7, 2-(4-(4-methyl-5-phenylisothiazol-3-yl)phenoxy)-N-((tetrahydro-2H-pyran-4-yl)methyl)acetamide], the inhibition at 1 µM came to 22%, the inhibition at 10 µM came to 22% and the inhibition at 100 µM turned out to be 55%.
Regarding `O=C(COc1ccc(-n2cc(-c3ccccc3)nn2)cc1)NCC1CCOCC1` [Example 37, 2-(4-(4-phenyl-1H-1,2,3-triazol-1-yl)phenoxy)-N-((tetrahydro-2H-pyran-4-yl)methyl)acetamide], the inhibition at 1 µM is 25%, the inhibition at 10 µM was 58% and the inhibition at 100 µM was 78%.
As for `COc1cc(-c2ccc(OCC(=O)NCC3CCOCC3)cc2)nn1-c1ccc(F)cc1` [Example 9, 2-(4-(1-(4-fluorophenyl)-5-methoxy-1H-pyrazol-3-yl)phenoxy)-N-((tetrahydro-2H-pyran-4-yl)methyl)acetamide], the inhibition at 1 µM was determined as 37%, the inhibition at 10 µM is 41% and the inhibition at 100 µM amounted to 64%.
The corresponding values for `COc1ccc(N2CC(c3ccc(OCC(=O)NCC4CCOCC4)cc3)OC2=O)cc1` (stereo not drawn) [Example 36, 2-(4-(3-(4-methoxyphenyl)-2-oxooxazolidin-5-yl)phenoxy)-N-((tetrahydro-2H-pyran-4-yl)methyl)acetamide] are 47%, 24% and 61%.
For the molecule `COc1cc(-c2ccc(OCC(=O)NCC3CCOCC3)cc2)nn1-c1ccccc1` [Example 10, 2-(4-(5-methoxy-1-phenyl-1H-pyrazol-3-yl)phenoxy)-N-((tetrahydro-2H-pyran-4-yl)methyl)acetamide], the inhibition at 1 µM is 33%, the inhibition at 10 µM is 40% and the inhibition at 100 µM is 56%.
Consider `O=C(COc1ccc(C2CN(c3ccc(F)cc3)C(=O)O2)cc1)NCC1CCOCC1` (stereo not drawn) [Example 35, 2-(4-(3-(4-fluorophenyl)-2-oxooxazolidin-5-yl)phenoxy)-N-((tetrahydro-2H-pyran-4-yl)methyl)acetamide], for which the inhibition at 1 µM is 14%, the inhibition at 10 µM turned out to be 54% and the inhibition at 100 µM was 61%.
For the molecule `Cc1c(-c2ccc(OCC(=O)NCC3CCOCC3)cc2)noc1-c1ccc(F)cc1` [Example 3, 2-(4-(5-(4-fluorophenyl)-4-methylisoxazol-3-yl)phenoxy)-N-((tetrahydro-2H-pyran-4-yl)methyl)acetamide], the inhibition at 1 µM came out at 33%, the inhibition at 10 µM worked out at 35% and the inhibition at 100 µM was 65%.
For `Cc1oc(-c2cccnc2)nc1-c1ccc(OCC(=O)NCC2CCOCC2)cc1` [Example 24, 2-(4-(5-methyl-2-(pyridin-3-yl)oxazol-4-yl)phenoxy)-N-((tetrahydro-2H-pyran-4-yl)methyl)acetamide], in that order: 49%, 76% and 35%.
In the case of `Cc1ccc(-c2nc(-c3ccc(OCC(=O)NCC4CCOCC4)cc3)c(C)o2)cc1` [Example 22, 2-(4-(5-methyl-2-(p-tolyl)oxazol-4-yl)phenoxy)-N-((tetrahydro-2H-pyran-4-yl)methyl)acetamide], the inhibition at 1 µM turned out to be 27%, the inhibition at 10 µM is 30% and the inhibition at 100 µM was found to be 54%.
For the molecule `Cc1nc(-c2ccc(OCC(=O)NCC3CCOCC3)cc2)oc1C` [Example 39, 2-(4-(4,5-dimethyloxazol-2-yl)phenoxy)-N-((tetrahydro-2H-pyran-4-yl)methyl)acetamide], the inhibition at 10 µM turned out to be 9% and the inhibition at 100 µM amounted to 15%.
Turning to `COc1ccc(-c2nnc(-c3ccc(OCC(=O)NCC4CCOCC4)cc3)o2)cc1` [Example 32, 2-(4-(5-(4-methoxyphenyl)-1,3,4-oxadiazol-2-yl)phenoxy)-N-((tetrahydro-2H-pyran-4-yl)methyl)acetamide], the inhibition at 1 µM came to 13%, the inhibition at 10 µM is 23% and the inhibition at 100 µM is 30%.
`O=C(COc1ccc(-c2noc(-c3ccc(C(F)(F)F)cc3)n2)cc1)NCC1CCOCC1` [Example 25, N-((tetrahydro-2H-pyran-4-yl)methyl)-2-(4-(5-(4-(trifluoromethyl)phenyl)-1,2,4-oxadiazol-3-yl)phenoxy)acetamide]: the inhibition at 1 µM amounted to 37%, the inhibition at 10 µM came out at 50% and the inhibition at 100 µM came out at 64%.
On to `Cc1c(-c2ccc(OCC(=O)NCC3CCOCC3)cc2)noc1-c1ccccc1` [Example 1, 2-(4-(4-Methyl-5-phenylisoxazol-3-yl)phenoxy)-N-((tetrahydro-2H-pyran-4-yl)methyl)acetamide], for which the inhibition at 10 µM turned out to be 42% and the inhibition at 100 µM amounted to 68%.
Consider `Cc1nc(-c2ccc(F)cc2)sc1-c1ccc(OCC(=O)NCC2CCOCC2)cc1` [Example 13, 2-(4-(2-(4-fluorophenyl)-4-methylthiazol-5-yl)phenoxy)-N-((tetrahydro-2H-pyran-4-yl)methyl)acetamide], for which the inhibition at 1 µM was 17%, the inhibition at 10 µM was 30% and the inhibition at 100 µM was determined as 78%.
For `Cc1ccc(-c2onc(-c3ccc(OCC(=O)NCC4CCOCC4)cc3)c2C)cc1` [Example 6, 2-(4-(4-methyl-5-(p-tolyl)isoxazol-3-yl)phenoxy)-N-((tetrahydro-2H-pyran-4-yl)methyl)acetamide], in that order: 12%, 17% and 34%.
For `Cc1nc(-c2ccccc2)sc1-c1ccc(OCC(=O)NCC2CCOCC2)cc1` [Example 11, 2-(4-(4-methyl-2-phenylthiazol-5-yl)phenoxy)-N-((tetrahydro-2H-pyran-4-yl)methyl)acetamide], in that order: 30%, 44% and 53%.
Turning to `COc1cc(-c2ccc(OCC(=O)NCC3CCOCC3)cc2)nn1-c1ccc(C(F)(F)F)cc1` [Example 8, 2-(4-(5-methoxy-1-(4-(trifluoromethyl)phenyl)-1H-pyrazol-3-yl)phenoxy)-N-((tetrahydro-2H-pyran-4-yl)methyl)acetamide], the inhibition at 10 µM amounted to 73% and the inhibition at 100 µM was 58%.
For `Cc1c(-c2ccc(OCC(=O)NCC3CCOCC3)cc2)noc1-c1ccc(C(F)(F)F)cc1` [Example 5, 2-(4-(4-methyl-5-(4-(trifluoromethyl)phenyl)isoxazol-3-yl)phenoxy)-N-((tetrahydro-2H-pyran-4-yl)methyl)acetamide], the inhibition at 1 µM came out at 49%, the inhibition at 10 µM was found to be 67% and the inhibition at 100 µM was 71%.
